From a melting point compilation (Tetko et al.; mined from patent text by program, amines drawn as free bases though some values may be those of a salt)

Compound	melting point [°C]
COCCCn1c(C=O)cc2c3c(c(-c4ccccc4Cl)cc21)C(=O)NC3=O	155 to 156
O=C(O)c1cc(O)c(Cl)c(Cl)c1	211
O=C(NC(Cc1ccncc1)C(=O)O)OCc1cc2cc(-c3cccnc3)ccc2o1 (configuration not stated)	257
O=C1c2cc(Cl)ccc2-n2cnc(-c3noc(CCl)n3)c2[C@@H]2CCN12	238 to 241
[N-]=[N+]=NCC1Cc2c(ccc3c2CCC(=O)N3)O1 (configuration not stated)	157 to 158
CCOC(=O)c1c2n(c3c(F)c(Cl)ccc3c1=O)CCS2	216
CCCCCC(O)C=CC1C(O)CC(=O)C1CCCCCCC(=O)OCCSS(C)(=O)=O (configuration not stated)	56 to 58
CCc1nn(-c2cc(NC(=O)CCOC)ccc2Cl)c(=O)n1Cc1ccc(-c2ccccc2S(=O)(=O)NC(=O)OC(C)(C)C)cc1F	128 to 131
CCCCCCCCC(OC(C)=O)C1=CC(=O)OC1O (configuration not stated)	54 to 55
O=C(NC[C@H]1CN(c2ccc3c(c2)CCCc2cnoc2-3)C(=O)O1)C(F)F	145 to 180
O=C(Nc1cccc(S(=O)(=O)NCC(F)(F)F)c1)c1cnn2c(C(F)(F)F)cc(-c3ccc(C(F)(F)F)cc3)nc12	259
CN(C)C(=O)c1cn(C)c2nc3cc(F)c(F)cc3cc2c1=O	324
COc1ccc(CNc2n[nH]cc2C(N)=O)cc1OC1CCCC1	128 to 130
C=CC(CC(O)C(CC1CCCCC1)NC(=O)C(Cc1ncc[nH]1)NC(=O)C(Cc1ccccc1)NC(=O)C(N)COC(C)(C)C)C(C)C (configuration not stated)	103
CC(C)CN(C[C@H](O)COc1cccc2[nH]c3ccccc3c12)c1ccc(OC(C)(C)C(N)=O)cc1	84 to 86
CCCCCCCCCCCCCCCCCCOc1cc(OCCCCC(=O)OC)cc(N(CC(=O)OCc2ccccc2)CC(=O)OCc2ccccc2)c1	48 to 50
N[C@H]1CCN(c2ccc3c(NC(=O)CCc4ccccc4Cl)c(Cl)ccc3n2)C1	200 to 212
CCCCCCCCc1ccc(-c2ccc(O)c(F)c2)nc1	73.5 to 74.6
O=C(O)CCc1oc(SC2CCCCC2)nc1-c1ccc(Cl)cc1	136 to 137
O=C(c1ccccc1)C(O)C1OC(n2ccc(=O)[nH]c2=O)C(O)(C(=O)c2ccccc2)C1(O)C(=O)c1ccccc1 (configuration not stated)	119 to 120
C[Si](C)(CC[Si](C)(C)c1ccc(C(F)(F)F)cc1)c1ccc(C(F)(F)F)cc1	58 to 59
Nc1cc(C(=O)O)cc(N)c1O	205

Compound	melting point [°C]
CC(C)(C(=O)O)c1ccc(C(=O)Nc2cn3cc(-c4cn[nH]c4)ccc3n2)cc1	306 to 307
CC1CCCCN1c1nc(-c2ccc(Cl)cc2)c(CCC(=O)O)o1 (configuration not stated)	126 to 128
COc1cc(N2CCC(N3CCN(C)CC3)CC2)ccc1Nc1ncc2ccc(-c3ccc(Cl)nc3)n2n1	186 to 188
CS(=O)(=O)c1cc2[nH]c(=O)c(=O)n(C3CCCCC3)c2cc1[N+](=O)[O-]	> 280
O=C(O)CCCOc1ccc2nc3[nH]c(=O)[nH]c3cc2c1	> 320
O=C(Nc1nccs1)c1nc(-c2cccc3ccccc23)[nH]c1-c1ccccc1	> 250
CCOC(=O)CNc1ccc2oc3c(OC)ccc(C(=O)Nc4c(Cl)cncc4Cl)c3c2c1	> 270
CCNC(=O)CCCNC(=O)CCCNC(=O)CCCNC(=O)OC(C)(C)C	170 to 171
NC(=O)c1cc2cc(C(O)(C(F)(F)F)C(F)(F)F)ccc2[nH]1	262 to 263
COc1cccc(C(CN(C)C)c2nnc3n2-c2ccc(Cl)cc2C(c2ccccc2)=NC3)c1 (configuration not stated)	139 to 140
CCOC(=O)C1=C(COCC2CO2)NC(C)=C(C(=O)OC)C1c1cccc(Cl)c1Cl (configuration not stated)	103 to 104
CCN(CC)C(=O)OC1c2ccccc2C(=O)N1c1ccc2ccc(Cl)nc2n1 (configuration not stated)	142 to 144
NC(=S)NN=C(CCC(=O)NC1CCCCC1)c1ccccc1	89 to 92
C(=Cc1cncn1Cc1ccccc1)CC(c1ccccc1)c1ccccc1	204 to 206
CSc1cc(=O)c2ccc(F)cc2s1	120 to 121
O=c1ccoc(C(O)c2ccc3ccccc3c2)c1OCc1ccccc1 (configuration not stated)	159 to 160
COC1(c2cc(F)cc(CC#COC#CCc3cc(F)cc(C4(OC)CCOCC4)c3)c2)CCOCC1	75 to 77
CC(C)n1nc(C(=O)O)c2ccccc21	160 to 163
Cc1cnc(CCCC#N)c([N+](=O)[O-])c1	53 to 55
CCCCNC(=S)NC(Cc1ccccc1)C(=O)Nc1c(C(C)C)cccc1C(C)C (configuration not stated)	214 to 215
O=C(CC(=O)C(F)(F)F)c1ccc(-c2ccco2)cc1	157
O=C(NCC12CC3CC(CC(C3)C1)C2)c1cc(-c2nccnc2N2CCC(C(=O)O)CC2)ccc1Cl	136 to 140

Compound	melting point [°C]
CCC(O)(c1cc(F)cc(Sc2ccc3c(-c4ccoc4)cc(C#N)cc3c2)c1)c1nccs1 (configuration not stated)	120 to 122
CC(=Cc1ccccc1)c1ccc2c(c1)SCCC2(C)C	67 to 69
O=C(OCC(Cl)(Cl)Cl)N1C2CCC1CC(Sc1ccc(Cl)cc1)C2 (configuration not stated)	70 to 71.5
CCCN1CCC(c2ccc(C(=O)NC3(C(=O)NCC#N)CCCCC3)cc2)CC1	198 to 200
CC1(C)OCC(CNc2c([N+](=O)[O-])cnc3cc(OCc4ccccc4)ccc23)O1 (configuration not stated)	154 to 155
CCOC(=O)C1(C(=O)OCC)CCC2(NCCc3cc(OC)c(OC)cc32)C(C2c3cc(OC)c(OC)cc3CCN2CC)C1 (configuration not stated)	146 to 147
OCCCCc1n[nH]c2ccc(C(F)(F)F)cc12	74 to 76
CCOC(=O)CN1C(=O)CSC1=Nc1cc(-n2c(=O)cc(C(F)(F)F)n(C)c2=O)c(F)cc1Cl	67 to 87
CCC(C#N)C(Br)c1ccc(Br)cc1 (configuration not stated)	87
Cc1nc(-c2ccc(-c3cnc4[nH]c(=O)n(CCN5CCCC5=O)c4n3)cc2)n[nH]1	315 to 316
COC(=O)c1ccc(C(=O)Nc2ccc3c(c2)C(C)(C)CCC3(C)C)cc1	211
CCCCCCCC(Oc1ccc(C(C)CC)cc1)C(=O)Nc1c(-c2ccccc2)nc2ccccc2c1C(=O)OC (configuration not stated)	89 to 91
COC(=O)c1c(S(C)(=O)=O)ccc(C(=O)C2C(=O)CCCC2=O)c1Cl	160 to 162
COc1cc2ncc(C#N)c(Cl)c2cc1OC	220 to 223
CCOCCCc1ccc(-c2ccc3c(c2)C=C(C(=O)Nc2ccc(CN(C)C4CCOCC4)cc2)CCS3(=O)=O)cc1	217 to 219
Cc1ccc(-c2ccc(C(=O)Nc3ccc4nc(CN5CCOCC5)ccc4c3)cn2)cc1	214 to 216
COc1ccc(C(=O)CCCCCN2CCC(CNC(=O)c3cc(Cl)c(N)cc3OC)CC2)cc1	133 to 135
CC(N)c1cc(NC(=O)OC(C)(C)C)ccc1NC(=O)OC(C)(C)C (configuration not stated)	170
CCOCc1nc2c(N)nc3c(c2n1CCCNS(C)(=O)=O)CCCC3	212 to 214
Cc1cc(CCC[C@H](CC(=O)OC(C)(C)C)C(=O)N[C@H](C(=O)O)C(C)(C)C)ccc1-c1ccccc1	51 to 56
COc1ccc(C)cc1NC(=O)Nc1ccc(N2CCN(C(=O)C3CCCCC3C)CC2)cc1 (configuration not stated)	208 to 209
O=S(=O)(CCc1ccc(O)cc1)CC1CCC1	112

Next, values leading:

melting point [°C]	Compound
72 to 74	Cc1cc(C)c(CSc2ccccc2)c(-c2ccc(F)c(C)c2)c1
145 to 146	N#Cc1sc2ccc(Br)cc2c1-c1ccccc1
53 to 54	Cc1cncc(CC(=O)c2ccccc2)c1
120 to 122	O=C(O)CCCC#CCN1C(=O)c2ccccc2C1=O
190 to 191	Cn1ccnc1CCc1cc2c(cc1O)CCO2
135 to 141	O=C(C=Cc1ccccn1)N1CCc2c([nH]c3ccccc23)C1c1ccc2c(c1)OCO2 (configuration not stated)
248 to 249	COc1ccc2c(c1)c(-c1cc3c(-c4cccnc4)ccnc3[nH]1)cn2C
149 to 152	O=C1NCCN1Cc1ccc2ccccc2c1
169	CCOC(=O)c1c(-c2cccc(Cl)c2)csc1N1C(=O)c2ccccc2C1=O
166 to 169	CC1(C)CCc2cc(S(=O)(=O)n3c(CCCC(=O)O)cc4cc(Cl)ccc43)ccc2O1
82 to 87	CC(=O)OCCc1c([N+](=O)[O-])cc(OCc2ccccc2)c2ccccc12
218 to 219	Cc1cccc(C)c1NC(=O)CCS(=O)(=O)c1cc(C(C)(C)C)c(O)c(C(C)(C)C)c1
160 to 163	Cc1nn(-c2ccccn2)c(C)c1S(N)(=O)=O
123	COc1ccc(C(=O)C=Cc2ccccc2O)c(OC)c1OC
320	C[C@@H]1NC(=O)c2cccc(N)c2NC1=O
175 to 177	CCN(CC)CCOc1ccc(Nc2ncc3c(n2)N(C2CCCC2)C(=O)NC3)cc1C

melting point [°C]	Compound
142	CC(Cc1n[nH]c(=O)c2ccccc12)c1cccnc1 (configuration not stated)
129 to 131	Clc1ccc(-c2nc(Cl)nc(Cl)c2-c2ccccc2)cc1
135 to 136	CC=CC=CCOC(=O)C1=C(C)NC(C)=C(C(=O)OC)C1c1cccc([N+](=O)[O-])c1 (configuration not stated)
247 to 249	Cc1ccc2nc(-c3ccc4oc(=O)n(C)c4c3)c(C)n2c1
160	Cn1c(=Nc2cccnc2)sc2ncccc2c1=O
86 to 87	CC(C)(C)OC(=O)NCCNC(=O)c1ncccc1Oc1ccccc1Cl
200 to 203	CCCc1cc(O)nc(SCC(N)=O)n1
225 to 228	Cc1nc2c(N)nc3ccccc3c2n1CCCS(C)(=O)=O
109 to 110	CCN(CC)C(=O)c1c(OC)ccc2cc(Br)ccc12
74	O=C1Cc2ccccc2N1CCCl
169 to 170	O=C1N(Cc2ccncc2)Cc2cccnc2N1c1cccc([N+](=O)[O-])c1
208 to 210	COc1cc2nc(S(=O)Cc3nccc(N(C)C)c3F)[nH]c2cc1OC (configuration not stated)
104 to 106	COc1ccc(Br)c(C(Cl)=NNS(=O)(=O)c2ccccc2)c1
109 to 111	c1ccc2c3ccocc-3nc2c1
136 to 138	CN[C@@H](CC(C)C)C(=O)N[C@@H](Cc1ccccc1)C(N)=O
